Assay results taken from ChEMBL document CHEMBL1158109, “Cytotoxic cis-fused bicyclic sesquiterpenoids from Jatropha neopauciflora” (J Nat Prod, 2006).

How the values were obtained:
K562 = assay: Cytotoxicity against human K-562 cells after 48 hrs by SRB assay; type: functional, cell-based; conditions: K562, 48 h
U-251 = assay: Cytotoxicity against human U251 cells after 48 hrs by SRB assay; type: functional, cell-based; conditions: U-251, 48 h

COc1cccc2c1C(=O)c1c(O)c3c(c(O)c1C2=O)C[C@@](O)(C(=O)CO)C[C@@H]3O[C@H]1C[C@H](N)[C@H](O)[C@H](C)O1 [DOXORUBICIN]
IC50 (K562): 0.28 µM | IC50 (U-251): 0.32 µM

C=C(C)[C@@H]1CC[C@@]2(C)[C@H]1[C@H]1CCC3[C@@]4(C)CC[C@H](O)C(C)(C)[C@@H]4CC[C@@]3(C)[C@]1(C)C[C@@H]2O (stereo not given in full) [CALENDULADIOL]
IC50 (K562): 31.4 µM | IC50 (U-251): 48.4 µM

C=C(C)[C@@H]1CC[C@@]2(C)[C@H]1[C@H]1CC[C@@H]3[C@@]4(C)CC[C@H](OC(=O)/C=C/c5ccc(O)cc5)C(C)(C)[C@@H]4CC[C@@]3(C)[C@]1(C)C[C@@H]2O
IC50 (U-251): 41 µM
